What all share (type): in vivo
Experiment [1] has as its system mouse cerebral infarction model. In words: Mouse cerebral infarction model: infarction area percentage, neurological symptom, edema percentage. The settings on record: evaluated 24 h, mean ± SE, n=6. An excerpt:
Using male ddY line mouse (body weight 35 to 45 g), a cerebral infarction model was produced and evaluated about neurological symptoms and the infarction area percentage according to methods similar to the production method and the evaluation method for the Mongolian gerbil cerebral infarction model.
The improvement effectiveness of SMTP-7 and alteplase on the infarction area percentage, the neurological symptom and the edema percentage was compared using the mouse cerebral infarction model. At the same time the dose dependence of the degree of improvement of SMTP-7 was investigated.
SMTP-7 and alteplase were prepared as in Example 2. Ten mg/kg each was administered into the femoral vein 1 hour or 3 hours after the initiation of ischemia in a mouse cerebral infarction model, wherein 10% was administered by a bolus administration, and the rest by continuous administration over 30 min. Further, 0.1 mg/kg or 1 mg/kg of SMTP-7 was administered into the femoral vein 1 hour after the initiation of ischemia in a mouse cerebral infarction model, wherein 10% was administered by a bolus administration, and the rest by continuous administration over 30 min. Six mice were used for each condition.
Twenty four hours after the initiation of the operation neurological symptom of each mouse was examined to rate the neurological symptom. Then the brain of each mouse was extirpated and the infarction area was measured and the infarction area percentage was determined. The edema percentage was determined according to the following formula: Edema percentage (%)=(Volume of the cerebral hemisphere affected by ischemia−Volume of the other side cerebral hemisphere)/Volume of the other side cerebral hemisphere×100 […]

Another experiment relates to TNF-α. Kind of experiment: Real time RT-PCR of inflammation parameter TNF-α in brain of mouse cerebral infarction model. The settings on record: 10 mg/kg, ipsilesional (right) brain at 24 h, mean ± SE, n=6. The procedure: (§1) Using the Mouse Cerebral Infarction model changes of parameters related to inflammation among the triprenyl phenol compound (10 mg/kg) administration groups, the alteplase (10 mg/kg) administration groups, and the alteplase (10 mg/kg) and aspirin (10 mg/kg) combined administration group were evaluated by a real time RT-PCR method. As the parameters IL-1β, TNF-α nd IL-6 were selected, which were typical parameters related to inflammation.
(§2) The administrations of SMTP-7 (10 mg/kg) and alteplase (10 mg/kg) were initiated 1 hour or 3 hours after the initiation of ischemia. The administration method was same as Example 3.
(§3) The combined administration of alteplase (10 mg/kg) and aspirin (10 mg/kg) was initiated 3 hours after the initiation of ischemia. Alteplase was administered same as in Example 3, and aspirin was administered by a bolus intravenous injection into the femoral vein.
(§4) The administrations of SMTP-6, SMTP-22, SMTP-25, SMTP-43 and SMTP-44D were initiated 1 hour after the initiation of ischemia. The administration method was same as Example 5.
(§5) After 24 hours of the initiation of the operation, a Krebs-HEPES buffer was perfused from the heart and then the brain was extirpated.
(§6) After preparing brain slices, the fourth slice was divided to the left brain and the right brain, and homogenized respectively with 1 mL of TRIZOL (registered trademark) reagent (Invitrogen). After incubating at room temperature for 5 min, adding chloroform (0.2 mL), and mixing for 15 sec, incubation was carried out at room temperature for 3 min. The samples were centrifuged at 4° C. for 15 min at 12,000×g.
(§7) Since RNA moved to a water layer, the water layer was collected and, after addition of 0.5 mL of isopropyl alcohol, followed by incubation at room temperature for 10 min, centrifuged at 4° C. for 10 min at 12,000×g. Since a pellet was formed in a tube after the centrifugation, the supernatant was removed, and 1 mL of 75% ethanol was added followed by stirring to wash the pellet. The mixture was then centrifuged at 4° C. for 5 min at 7,500×g. After removing again the supernatant, being left for natural drying for 8 min, the pellet containing the RNA was dissolved in 100 μL of RNase-free water. cDNA was produced by reverse transcription of the RNA using a SuperScript (registered trademark) VILOTM cDNA Synthesis Kit (Invitrogen) by a Thermal Cycler 2720 (Applied Biosystems). More particularly, 4 μL of 5×VILOTM Reaction Mix, 2 μL of 10× SuperScript (registered trademark) Enzyme Mix, and 1 μg of each RNA were mixed and diluted to 20 μL with RNase-free water.
(§8) Reverse transcription was conducted using the above samples under the following conditions. After reacting at 25° C. for 10 min, at 42° C. for 60 min, and at 85° C. for 5 min, the product was stored at 4° C. With the cDNA as a template real time RT-PCR was carried out by ABI PRISM 7000 using SYBR (registered trademark) GreenERTM qPCR SuperMix for ABI PRISM (registered trademark; Invitrogen). […]
(§9) Real time RT-PCR was conducted using the above samples under the following conditions. […] Changes of the respective parameters were determined by a calibration curve method. β-actin was measured as an internal control, and the respective parameters were calculated as a relative value based on the β-actin. […]
Background: Real-time PCR tracks product formation cycle by cycle.

The next experiment deals with IL-6. In words: Real time RT-PCR of inflammation parameter IL-6 in brain of mouse cerebral infarction model. Conditions: 10 mg/kg, ipsilesional (right) brain at 24 h, mean ± SE, n=6. How it is done:
as §1, §2, §3, §4, §5, §6, §7, §8, §9

In another experiment the test system is IL-1β. In words: Real time RT-PCR of inflammation parameter IL-1β in brain of mouse cerebral infarction model. The settings on record: 10 mg/kg, ipsilesional (right) brain at 24 h, mean ± SE, n=6. The procedure:
as §1, §2, §3, §4, §5, §6, §7, §8, §9

[2] abbreviates: 10 mg/kg femoral vein, administration initiated 1 hr after ischemia.
[3] abbreviates: 10 mg/kg femoral vein, administration initiated 3 hr after ischemia.
Where [4] appears, read: administration initiated 1 hr after ischemia.
[5] abbreviates: administration initiated 3 hr after ischemia.
The mark [6] stands for this setting: 0.1 mg/kg femoral vein, administration 1 hour after ischemia.
Setting [7] is: 1 mg/kg femoral vein, administration 1 hour after ischemia.

Marks after values point to notes of the source that are not given here.

As for alteplase [reference compound], the Edema percentage in experiment [1] (setting [2]) was determined as 3.63 ± 2.67 %; in experiment [1] (setting [3]), 12.6 ± 1.84%. For the same compound, the Infarction area worked out at 6.15 ± 1.94 % in experiment [1] (setting [2]) and 11.9 ± 2.26% in experiment [1] (setting [3]). The Neurological scores is 1.17 ± 0.749 in experiment [1] (setting [2]) and 2.50 ± 0.500 in experiment [1] (setting [3]). Further, the “TNF-α, relative value to β-actin” value is given as 0.164 ± 0.0332 in the experiment on TNF-α (setting [4]) and 0.381 ± 0.155 with TNF-α (setting [5]). Also, the “IL-6, relative value to β-actin” value in the experiment on IL-6 (setting [4]) was 0.0582 ± 0.0254; in the experiment with IL-6 (setting [5]) it was 0.341 ± 0.138**^,#. Moreover, the “IL-1β, relative value to β-actin” value is recorded as 0.0408 ± 0.0173 in the experiment with IL-1β (setting [4]) and 0.347 ± 0.172**^,## in the experiment on IL-1β (setting [5]).

For the compound `CC(C)=CCC/C(C)=C/CC[C@@]1(C)Oc2c(c(O)cc3c2CN(CCC[C@@H](C(=O)O)N2Cc4c(cc(O)c5c4O[C@](C)(CC/C=C(\C)CCC=C(C)C)[C@@H](O)C5)C2=O)C3=O)C[C@@H]1O` [SMTP-7], the Edema percentage was 10.15 ± 1.817% in experiment [1] (setting [6]), 8.81 ± 2.292% in experiment [1] (setting [7]), 5.81 ± 0.967 % in experiment [1] (setting [2]) and 6.23 ± 1.07 % in experiment [1] (setting [3]). The Infarction area in experiment [1] (setting [6]) was 10.08 ± 2.07%; in experiment [1] (setting [7]) it was 6.66 ± 0.71 %; in experiment [1] (setting [2]) it was 4.87 ± 1.06 %; in experiment [1] (setting [3]) it was 5.05 ± 0.576 %. Further, the Neurological scores in experiment [1] (setting [6]) turned out to be 2.5 ± 0.5; in experiment [1] (setting [7]) it was 2 ± 0.632; in experiment [1] (setting [2]), 1.67 ± 0.422; in experiment [1] (setting [3]) it was 1.33 ± 0.558. The “TNF-α, relative value to β-actin” value is 0.151 ± 0.0313 with TNF-α (setting [4]) and 0.147 ± 0.0293 in the experiment with TNF-α (setting [5]). Besides, the “IL-6, relative value to β-actin” value in the experiment with IL-6 (setting [4]) is 0.0356 ± 0.0138; in the experiment with IL-6 (setting [5]), 0.0651 ± 0.0308. Also, the figures for the “IL-1β, relative value to β-actin” value with IL-1β (setting [4]) and in the experiment on IL-1β (setting [5]) were 0.0314 ± 0.0171 and 0.0728 ± 0.0380, respectively.

As to `CC(C)=CCC/C(C)=C/CCC1(C)Oc2c(c(O)cc3c2CN(C(Cc2c[nH]c4ccccc24)C(=O)O)C3=O)CC1O` (stereo not drawn) [SMTP-6], in experiment [1] (setting [2]), the Edema percentage was 9.80 ± 2.74%, the Infarction area turned out to be 9.81 ± 1.43% and the Neurological scores is 3 ± 0.447. In the experiment with TNF-α (setting [4]), the “TNF-α, relative value to β-actin” value stood at 0.261 ± 0.119. In addition, the “IL-6, relative value to β-actin” value with IL-6 (setting [4]) was 0.220 ± 0.0850. In addition, the “IL-1β, relative value to β-actin” value in the experiment with IL-1β (setting [4]) came to 0.165 ± 0.0930.

Source of the values: patent USRE49351E1, “Cytoprotective agent” (Biogen MA Inc., priority 2009, dated 2023).
